# Experimental data reported in patent US11629171B2, “Beta-hairpin peptidomimetics” (POLYPHOR AG, priority 2017, dated 2023).
# Where a SMILES comes first, the peptide text is derived from it. Bridges are numbered along the chain shown (N, C = ends). Roman numbers before positions name the chains, in order. [ ]: non-standard residue; d: D form. Thr(ol) = C[C@@H](O)[C@H](N)CO; Pen = CC(C)(S)[C@H](N)C(=O)O; Tle = CC(C)(C)[C@H](N)C(=O)O; Hiv = CC(C)[C@H](O)C(=O)O; dDab = NCC[C@@H](N)C(=O)O; hSer = N[C@@H](CCO)C(=O)O; Orn = NCCC[C@H](N)C(=O)O; Dab = NCC[C@H](N)C(=O)O; Dap = NC[C@H](N)C(=O)O
# Experiments:
# Type in all cases: cell-based
# [1] = system: human red blood cells (hRBC); assay: Hemolysis; details: red cells of human, 1 h, 200
# Method in brief: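 Percent lysis of human red cells was derived from OD540 of the supernatant, referenced to 2% Triton X-100, after a 1 h, 37° C incubation of 20% (v/v) cells with 200 μg/mL peptide.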
# [2] = system: Klebsiella pneumoniae SSI #3010; details: SSI #3010
# Method in brief: (§1)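 Cation-adjusted MH-II broth, 0.002% polysorbate 80, inoculum near 10^6 CFU/mL. MIC read visually after 18-20 h, 35° C; units μg/mL.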
# [3] = system: Acinetobacter baumannii DSM 30008; details: DSM 30008
# Method in brief: as §1
# [4] = system: Acinetobacter baumannii 872842; details: 872842
# Method in brief: as §1
# Escherichia coli 926415 = details: 926415
# Method in brief: as §1
# [5] = system: Enterobacter cloacae 848840; details: 848840
# Method in brief: as §1
# [6] = system: Escherichia coli ATCC 25922; details: ATCC 25922
# Method in brief: as §1
# [7] = system: Klebsiella pneumoniae 968733; details: 968733
# Method in brief: as §1
# [8] = system: Pseudomonas aeruginosa ATCC 27853; details: ATCC 27853
# Method in brief: as §1
Structure (SMILES),Hemolysis at 200 μg/mL [1] [%],MIC [2] [µg/mL],MIC [3] [µg/mL],MIC [4] [µg/mL],MIC (Escherichia coli 926415) [µg/mL],MIC [5] [µg/mL],MIC [6] [µg/mL],MIC [7] [µg/mL],MIC [8] [µg/mL],Klebsiella pneumoniae SSI #3010 MIC [2] [µg/mL],Acinetobacter baumannii DSM 30008 MIC [3] [µg/mL],Escherichia coli ATCC 25922 MIC [6] [µg/mL],Pseudomonas aeruginosa ATCC 27853 MIC [8] [µg/mL]
CC(C)C[C@@H]1NC(=O)[C@@H](CC(C)C)NC(=O)[C@H](CCN)NC(=O)[C@@H](NC(=O)[C@H](CCN)NC(=O)[C@@H](NC(=O)[C@H](CCN)NC(=O)CC[C@@H]2NC(=O)[C@@H](NC(=O)[C@H](Cc3ccc(O)cc3)NC(=O)[C@@H](NC(=O)[C@@H](O)C(C)C)[C@@H](C)O)C(C)(C)SSC[C@@H](C(=O)N[C@H](C(=O)N[C@@H](C)C(=O)N[C@H](CO)[C@@H](C)O)C(C)(C)C)NC(=O)[C@H](Cc3c[nH]c4ccccc34)NC(=O)[C@H](CCO)NC(=O)[C@@H](CCN)NC2=O)[C@@H](C)O)CCNC(=O)[C@H]([C@@H](C)O)NC(=O)[C@H](CCN)NC(=O)[C@H](CCN)NC1=O [Ex. 194] (I: H-[Hiv]TY[Pen]E[dDab][hSer]WC[Tle]A[Thr(ol)] / II: [Dab]T[Dab][Dab][Dab][dL]L[Dab][Dab]T; disulfide I:4-I:9; amide I:5-II:N; lactam II:4-II:C),<1,0.0625,0.0625,0.25,0.5,0.125,0.0625,0.25,0.125,,,,
CC(C)C[C@@H]1NC(=O)[C@@H](CC(C)C)NC(=O)[C@H](CCN)NC(=O)[C@@H](NC(=O)[C@H](CCN)NC(=O)[C@@H](NC(=O)[C@H](CCN)NC(=O)CC[C@@H]2NC(=O)[C@@H](NC(=O)[C@H](Cc3ccc(O)cc3)NC(=O)[C@@H](NC(=O)[C@@H](O)C(C)C)[C@@H](C)O)CSSC[C@@H](C(=O)N[C@H](C(=O)N[C@@H](C)C(=O)N[C@H](CO)[C@@H](C)O)C(C)(C)C)NC(=O)[C@H](Cc3c[nH]c4ccccc34)NC(=O)[C@H](CCO)NC(=O)[C@@H](CCN)NC2=O)[C@@H](C)O)CCNC(=O)[C@H]([C@@H](C)O)NC(=O)[C@H](CCN)NC(=O)[C@H](CCN)NC1=O [Ex. 193] (I: H-[Hiv]TYCE[dDab][hSer]WC[Tle]A[Thr(ol)] / II: [Dab]T[Dab][Dab][Dab][dL]L[Dab][Dab]T; disulfide I:4-I:9; amide I:5-II:N; lactam II:4-II:C),<1,0.25,0.0625,0.5,0.5,0.5,0.125,0.5,0.25,,,,
"CC(=O)N[C@H](C(=O)N[C@H]1CCCNC(=O)[C@@H](CCC(=O)O)NC(=O)[C@H](C(C)(C)C)NC(=O)[C@H](CO)NC(=O)[C@H](Cc2c[nH]c3ccccc23)NC(=O)[C@H](CCO)NC(=O)[C@@H](CCN)NC(=O)[C@H](CCC(=O)N[C@@H](CCN)C(=O)N[C@H](C(=O)N[C@@H](CN)C(=O)N[C@H]2CCNC(=O)[C@H]([C@@H](C)O)NC(=O)[C@H](CCN)NC(=O)[C@H](CCN)NC(=O)[C@H](CC(C)C)NC(=O)[C@@H](CC(C)C)NC(=O)[C@H](CCN)NC2=O)[C@@H](C)O)NC(=O)[C@H](CO)NC(=O)[C@H](Cc2ccc(O)cc2)NC1=O)C(C)C [Ex. 21] (I: Ac-V[Orn]YSE[dDab][hSer]WS[Tle][dE] / II: [Dab]T[Dap][Dab][Dab][dL]L[Dab][Dab]T; lactam I:2-I:C, II:4-II:C; amide I:5-II:N)",<1,0.5,0.5,2,8,0.5,0.25,8,0.5,,,,
"CC(=O)N[C@H](C(=O)N[C@H]1CCCNC(=O)[C@@H]([C@H](C)O)NC(=O)[C@H](C(C)C)NC(=O)[C@H](CO)NC(=O)[C@H](Cc2c[nH]c3ccccc23)NC(=O)[C@H](CCN)NC(=O)[C@@H](CCN)NC(=O)[C@H](CCC(=O)N[C@@H](CCN)C(=O)N[C@H](C(=O)N[C@@H](CN)C(=O)N[C@H]2CCNC(=O)[C@H]([C@@H](C)O)NC(=O)[C@H](CCN)NC(=O)[C@H](CCN)NC(=O)[C@H](CC(C)C)NC(=O)[C@@H](CC(C)C)NC(=O)[C@H](CCN)NC2=O)[C@@H](C)O)NC(=O)[C@H](CN)NC(=O)[C@H](Cc2ccc(O)cc2)NC1=O)C(C)C [Ex. 37] (I: Ac-V[Orn]Y[Dap]E[dDab][Dab]WSV[dT] / II: [Dab]T[Dap][Dab][Dab][dL]L[Dab][Dab]T; lactam I:2-I:C, II:4-II:C; amide I:5-II:N)",1,0.25,0.125,1,0.5,0.25,0.25,2,0.5,,,,
CC(=O)N[C@H](C(=O)N[C@H]1CSSC[C@@H](C(=O)N[C@@H](CO)C(N)=O)NC(=O)[C@H](C(C)(C)C)NC(=O)[C@H](CO)NC(=O)[C@H](Cc2c[nH]c3ccccc23)NC(=O)[C@H](CCN)NC(=O)[C@@H](CCN)NC(=O)[C@H](CCC(=O)N[C@@H](CCN)C(=O)N[C@H](C(=O)N[C@@H](CN)C(=O)N[C@H]2CCNC(=O)[C@H]([C@@H](C)O)NC(=O)[C@H](CCN)NC(=O)[C@H](CCN)NC(=O)[C@H](CC(C)C)NC(=O)[C@@H](CC(C)C)NC(=O)[C@H](CCN)NC2=O)[C@@H](C)O)NC(=O)[C@H](CN)NC(=O)[C@H](Cc2ccc(O)cc2)NC1=O)C(C)C [Ex. 120] (I: Ac-VCY[Dap]E[dDab][Dab]WS[Tle]CS-NH2 / II: [Dab]T[Dap][Dab][Dab][dL]L[Dab][Dab]T; disulfide I:2-I:11; amide I:5-II:N; lactam II:4-II:C),1,0.0625,0.0625,0.0625,0.0625,0.25,0.125,0.125,0.125,,,,
CC(=O)N[C@H](C(=O)N[C@H]1CSSC[C@@H](C(=O)N[C@@H](CO)C(N)=O)NC(=O)[C@H](C(C)C)NC(=O)[C@H](CO)NC(=O)[C@H](Cc2c[nH]c3ccccc23)NC(=O)[C@H](CCC(=O)N[C@@H](CCN)C(=O)N[C@H](C(=O)N[C@@H](CN)C(=O)N[C@H]2CCNC(=O)[C@H]([C@@H](C)O)NC(=O)[C@H](CCN)NC(=O)[C@H](CCN)NC(=O)[C@H](CC(C)C)NC(=O)[C@@H](CC(C)C)NC(=O)[C@H](CCN)NC2=O)[C@@H](C)O)NC(=O)[C@@H](CCN)NC(=O)[C@H](CCCN)NC(=O)[C@H](CO)NC(=O)[C@H](Cc2ccc(O)cc2)NC1=O)C(C)C [Ex. 354] (I: Ac-VCYS[Orn][dDab]EWSVCS-NH2 / II: [Dab]T[Dap][Dab][Dab][dL]L[Dab][Dab]T; disulfide I:2-I:11; amide I:7-II:N; lactam II:4-II:C),1,,,0.0625,0.5,0.125,,0.25,,0.0625,0.03125,0.0625,0.125
